The numbers were not newly measured in publication PMC8198792, “Prediction of Anticancer Peptides with High Efficacy and Low Toxicity by Hybrid Model Based on 3D Structure of Peptides” (International Journal of Molecular Sciences, 2021), which cites them from elsewhere.

In data set [1] the test system is erythrocytes. As to conditions: cited from earlier work. The text has this:
Supplement ijms-22-05630-s001.zip/Hemloytic Peptides(seguence).xlsx, sheet "HD1" | column: Activity || Supplement ijms-22-05630-s001.zip/Hemloytic Peptides(seguence).xlsx, sheet "HD2" | column: Activity || Supplement ijms-22-05630-s001.zip/Hemloytic Peptides(seguence).xlsx, sheet "HD3" | column: Activity

Data set [2] deals with cancer cell lines. More on the design: method as in 6 sources, ref CancerPPD [45] and SATPdb ||| ref CancerPPD/SATPdb ||| ref CancerPPD, SATPdb, Swissprot (PDB) ||| ref CancerPPD/SATPdb/Swissprot(PDB) ||| ref CancerPPD / SATPdb ||| ... The settings on record: cited from earlier work. The text has this: Supplement ijms-22-05630-s001.zip/ACPs(seguence).xlsx, sheet "D1" | column: Activity || Supplement ijms-22-05630-s001.zip/ACPs(seguence).xlsx, sheet "D2" | column: Activity || Supplement ijms-22-05630-s001.zip/ACPs(seguence).xlsx, sheet "D3" | column: Activity || (+ 2 further places)

Where [3] appears, read: ACPs dataset D3 (sheet "D3"), label 1 = ACP, 0 = non-ACP, ref CancerPPD/SATPdb.
The mark [4] stands for this setting: ACPs dataset D4 (sheet "D4"), label 1 = ACP, 0 = non-ACP, ref CancerPPD / SATPdb.
The mark [5] stands for this setting: ACPs dataset D5, sheet "D5", label 1 = ACP, 0 = non-ACP, ref CancerPPD [45] and SATPdb.
Where [6] appears, read: Hemolytic peptides dataset HD2, label 1 = hemolytic, 0 = non-hemolytic, ref Hemolytik/SATPdb.
[7] abbreviates: hemolytic peptides dataset HD3, 1 = hemolytic (positive set), 0 = non-hemolytic (negative set), labels taken from databases, ref Hemolytik/SATPdb.
[8] abbreviates: ACPs dataset D3 (supplement sheet "D3"), 1 = ACP, 0 = non-ACP, ref CancerPPD [45] and SATPdb.
Setting [9] is: ACPs dataset D1, label 1 = ACP, 0 = non-ACP (non-anticancer AMPs from SATPdb), ref CancerPPD/SATPdb.
[10] abbreviates: ACPs dataset D4 (sheet "D4"), label 1 = ACP (CancerPPD ID), 0 = non-ACP (non-anticancer AMP, SATPdb ID), ref CancerPPD [45] and SATPdb.
The mark [11] stands for this setting: natural hemolytic peptide dataset HD1, label collected from databases, ref Hemolytik [49], SATPdb [34].

Like-named read-outs stand apart in the source and are kept apart here.

GFMKYIKPLIPHAVKAIKKLI [satpdb12244]: the Activity in data set [1] is 1; in data set [2] (setting [3]) it was 0; in data set [2] (setting [4]) it was 0; in data set [2] (setting [5]), 0.
Turning to “GIGAVLK*VLTTGLpALISWIK*RK*RQQ [satpdb13686]”, the Activity in data set [1] (setting [6]) was 1; in data set [1] (setting [7]) it was 1; in data set [2] (setting [3]) it was 0; in data set [2] (setting [4]), 0; in data set [2] (setting [5]) it was 0.
With “GIGAvLKvLTTGLPALiSWIkRKRQQ [satpdb13084]”, the Activity in data set [1] (setting [6]), in data set [1] (setting [7]), in data set [2] (setting [3]), in data set [2] (setting [4]) and in data set [2] (setting [5]) was 0 each time.
Regarding GIGKFLHTLKTFGKKWVGEIMNS [satpdb13533], the Activity in data set [1] is reported as 1; in data set [2] (setting [3]), 0; in data set [2] (setting [4]) it was 0; in data set [2] (setting [5]), 0.
On to GKKLLKKLKKLLKKW [satpdb10586], for which the Activity is listed as 1 in data set [1], 0 in data set [2] (setting [8]), 0 in data set [2] (setting [4]) and 0 in data set [2] (setting [5]).
As for GLGKFLHSAKRFGKAFVGEAMNS [satpdb13009], the Activity in data set [1] is on record as 1; in data set [2] (setting [3]) it was 0; in data set [2] (setting [4]), 0; in data set [2] (setting [5]), 0.
Turning to “GLGSLLGKAFKIGLKTVGKMMGGAPREQ [satpdb12448, hemolytic peptide, dataset HD1]”, the results for the Activity in data set [1], in data set [2] (setting [9]) and in data set [2] (setting [10]) were 1, 0 and 0, respectively. In data set [1], the “Activity (dataset HD1, hemolytic 1 / non-hemolytic 0)” value is listed as 1.
Turning to GLKEIFKAGLGSLVKGIAAHVAS [satpdb12238], the results for the Activity in data set [1] and in data set [2] (setting [3]) were 1 and 0, respectively.
In the case of GLLGPLLKIAAKVGKKLL [satpdb11754], the Activity in data set [1] is 1; in data set [2] (setting [8]), 0; in data set [2] (setting [4]), 0; in data set [2] (setting [5]), 0.
“GLLSGILGAGKQKVCGLSGLC [satpdb12339, hemolytic peptide, dataset HD1]”: the Activity is listed as 1 in data set [1], 0 in data set [2] (setting [9]) and 0 in data set [2] (setting [10]). Also, the “Activity (dataset HD1, hemolytic 1 / non-hemolytic 0)” value in data set [1] is recorded as 1.
On to “GLVTSLIKGAGKLLGGLFGSVTGGQS [satpdb13110, hemolytic peptide, dataset HD1]”, for which the figures for the Activity in data set [1], in data set [2] (setting [9]) and in data set [2] (setting [4]) were 1, 0 and 0, respectively. Besides, the “Activity (dataset HD1, hemolytic 1 / non-hemolytic 0)” value in data set [1] is listed as 1.
“GLWDTIKQAGKKFFLNVLDKIRCKVAGGCRT [satpdb11099, hemolytic peptide, dataset HD1]”: the Activity in data set [1] (setting [7]) is given as 1; in data set [2] (ACPs dataset D1, 1 = ACP (positive), 0 = non-ACP (negative), label taken from databases, ref CancerPPD [45] and SATPdb) it was 0; in data set [2] (setting [10]), 0. The “Activity (dataset HD1, hemolytic 1 / non-hemolytic 0)” value in data set [1] (setting [11]) was 1.
Turning to “GRFKRFRKKFKKLFKKLSPVIPLLHL [satpdb13682]”, the Activity is given as 1 in data set [1], 0 in data set [2] (setting [3]), 0 in data set [2] (setting [4]) and 0 in data set [2] (setting [5]).
For “GWLDVAKKIGKAAFNVAKNFLFNKAVNFAAKGIKKAVDLWG [satpdb12864, hemolytic peptide, dataset HD1]”, the Activity in data set [1] (setting [7]) was 1; in data set [2] (setting [9]) it was 0; in data set [2] (setting [4]), 0. Moreover, in data set [1] (setting [11]), the “Activity (dataset HD1, hemolytic 1 / non-hemolytic 0)” value is recorded as 1.
ILAWKWAWWAWRR [satpdb11388]: the Activity is given as 1 in data set [1], 0 in data set [2] (setting [8]), 0 in data set [2] (setting [4]) and 0 in data set [2] (setting [5]).
As to ILPFKFPFFPFRR [satpdb11100], the Activity is 1 in data set [1] (setting [6]); 1 in data set [1] (setting [7]); 0 in data set [2] (setting [8]); 0 in data set [2] (setting [4]); 0 in data set [2] (setting [5]).
Consider ILPFKFPFPFRR [satpdb12286], for which the Activity in data set [1] is on record as 1; in data set [2] (setting [3]) it was 0; in data set [2] (setting [4]), 0; in data set [2] (setting [5]), 0.
Consider ILPKKKPWWPWRR [satpdb13640], for which the Activity is recorded as 1 in data set [1], 0 in data set [2] (setting [3]), 0 in data set [2] (setting [4]) and 0 in data set [2] (setting [5]).
With ILPLKLPLLPWRR [satpdb11013], the Activity in data set [1] (setting [6]), in data set [1] (setting [7]), in data set [2] (setting [8]), in data set [2] (setting [4]) and in data set [2] (setting [5]) was 0 each time.
ILPWKWPKLPWRR [satpdb13392]: the Activity in data set [1], in data set [2] (setting [3]), in data set [2] (setting [4]) and in data set [2] (setting [5]) was 0 each time.
Consider ILPWKWPWWPWRR [satpdb10356], for which the Activity in data set [1] (setting [6]) is recorded as 1; in data set [1] (setting [7]) it was 1; in data set [2] (setting [8]), 0; in data set [2] (setting [4]), 0; in data set [2] (setting [5]), 0.
Regarding IWRIFRRIFRIF [satpdb11167], the Activity in data set [1] (setting [6]) is 1; in data set [1] (setting [7]), 1; in data set [2] (setting [8]), 0; in data set [2] (setting [4]), 0; in data set [2] (setting [5]), 0.
In the case of “KEKLKLKCKAPKCYNDKLACT [satpdb13157, non-hemolytic peptide, dataset HD1]”, the Activity in data set [1], in data set [2] (setting [9]) and in data set [2] (setting [4]) was 0 throughout. Moreover, in data set [1], the “Activity (dataset HD1, hemolytic 1 / non-hemolytic 0)” value is listed as 0.
In the case of KKKAAAFAAWAAFAKKK [satpdb11969], the Activity in data set [1], in data set [2] (setting [3]), in data set [2] (setting [4]) and in data set [2] (setting [5]) was 0 each time.
As to KKKKKKAAAAFWAAAAF [satpdb11398], the Activity in data set [1], in data set [2] (setting [8]), in data set [2] (setting [4]) and in data set [2] (setting [5]) was 0 throughout.
Regarding KKKLLLLLLLLLKKK [satpdb10761], the Activity is 1 in data set [1] (setting [6]); 1 in data set [1] (setting [7]); 0 in data set [2] (setting [8]); 0 in data set [2] (setting [4]); 0 in data set [2] (setting [5]).
In the case of KKLFKKiLKYL [satpdb14620], the Activity in data set [1], in data set [2] (setting [3]), in data set [2] (setting [4]) and in data set [2] (setting [5]) was 0 in each case.
As for KKVVFKVKFKK [satpdb13401], the Activity in data set [1], in data set [2] (setting [3]), in data set [2] (setting [4]) and in data set [2] (setting [5]) was 0 in each case.
For KLalKLALKALKAALKLA [satpdb12751], the Activity is recorded as 1 in data set [1], 0 in data set [2] (setting [3]), 0 in data set [2] (setting [4]) and 0 in data set [2] (setting [5]).
For the substance “KNLRRIIRKGIHIIKKYF [satpdb11799, hemolytic peptide, dataset HD1]”, the Activity is recorded as 1 in data set [1], 0 in data set [2] (setting [9]) and 0 in data set [2] (setting [10]). Moreover, the “Activity (dataset HD1, hemolytic 1 / non-hemolytic 0)” value in data set [1] is reported as 1.
Turning to KWAKKWKWFAKAAWKWYKK [satpdb12565], the Activity in data set [1] (setting [6]) is 1; in data set [1] (setting [7]) it was 1; in data set [2] (setting [3]) it was 0; in data set [2] (setting [4]), 0; in data set [2] (setting [5]), 0.
